Reference: US20050153872A1, “Methods and compositions for the treatment of infection” (priority 2004, published 2005)

Columns and labels:
[1] = system: Candida albicans ATCC 10231; experiment: In vitro cell growth inhibition assay (OD595, filaments); conditions: Ph-CA 5 μg/ml; Ph-SA 5 μg/ml; ampicillin 50 μg/ml; amphotericin B 200 ng/ml; fluconazole 3 μg/ml
[2] = system: Aspergillus niger SWA 1011 strain; experiment: In vitro cell growth inhibition assay; conditions: Ph-CA 5 μg/ml; Ph-SA 5 μg/ml; amphotericin B 200 ng/ml; Fluconazole 3 μg/ml
[3] = system: SMMC-7721 cells transfected with HCV; type: cell-based, human; conditions: about 100 micrograms per ml

Molecule	effect on growth of Candida albicans [1]	effect on growth of Aspergillus niger [2]	cell count and morphological features versus control [3]
OC(Cn1cncn1)(Cn1cncn1)c1ccc(F)cc1F [fluconazole]	no effect on the growth	no effect on the growth	
C[C@@H]1[C@H](O)[C@@H](C)/C=C/C=C/C=C/C=C/C=C/C=C/C=C/[C@H](O[C@@H]2O[C@H](C)[C@@H](O)[C@H](N)[C@@H]2O)C[C@@H]2O[C@](O)(C[C@@H](O)C[C@@H](O)[C@H](O)CC[C@@H](O)C[C@@H](O)CC(=O)O[C@H]1C)C[C@H](O)[C@H]2C(=O)O [amphotericin B]	completely inhibited C. albicans growth	inhibited Aspergillus niger growth	
NH2-colicinIa-I626-GFTFSDYYMS-COOH (protein, G28 - S37 from HBV HBsAg ScFV linked to Colicin Ia, heavy chain CDR1 of HBV HBsAg ScFv linked to colicin Ia at residue 626) SDPVARGITNPGAESLGYDSDGHEIMAVASPIYVASNPPRVASPVFHGTPPAWSSFGNKTIWGGNEWVASPDSPTRSDIEKRDKEITAYKNTLSAQQKENENKRTEAGKRLSAAIAAREKDENTLKTLRAGNADAADITRQEFRLLQAELREYGFRTEIAGYDALRLHTESRMLFADADSLRISPREARSLIEQAEKRQKDAQNADKKAADMLAEYERRKGILDTRLSELEKNGGAALAVLDAQQARLLGQQTRNDRAISEARNKLSSVTESLNTARNALTRAEQQLTQQKNTPDGKTIVSPEKFPGRSSTNHSIVVSGDPRFAGTIKITTSAVIDNRANLNYLLSHSGLDYKRNILNDRNPVVTEDVEGDKKIYNAEVALAEWDKLRQRLLDARNKITSAESAVASNSARNNLSARTNEQKHANDALNALLKEKENIRNQLSGINQKIAEEKRKQDELKATKDAINFTTEFLKSVSEKYGAKAEQLAREMAGQAKGKKIRNVEEALKTYEKYRADINKKINAKDRAAIAAALESVKLSDISSNLNRFSRGLGYAGKFTSLADWITEFGKAVARGTENWRPLFVKTETIIAGNAATALVALALVFSILTGSALGIIGYGLLMAVTGALIDESLVEKANKFWGIGFTFSDYYMS			Some of the treated cells died in comparison with the control and the rest became swollen and/or deformed
NH2-colicin Ia-I626-SYAIS-…-AAWDDSLH-COOH (protein, CDRs from HBV PreS-1 ScFv linked to colicin Ia, two CDRs from PreS-1 (Genbank AF427148) of HBV ScFv linked to colicin Ia) MSDPVARGITNPGAESLGYDSDGHEIMAVASPIYVASNPPRVASPVFHGTPPAWSSFGNKTIWGGNEWVASPDSPTRSDIEKRDKEITAYKNTLSAQQKENENKRTEAGKRLSAAIAAREKDENTLKTLRAGNADAADITRQEFRLLQAELREYGFRTEIAGYDALRLHTESRMLFADADSLRISPREARSLIEQAEKRQKDAQNADKKAADMLAEYERRKGILDTRLSELEKNGGAALAVLDAQQARLLGQQTRNDRAISEARNKLSSVTESLNTARNALTRAEQQLTQQKNTPDGKTIVSPEKFPGRSSTNHSIVVSGDPRFAGTIKITTSAVIDNRANLNYLLSHSGLDYKRNILNDRNPVVTEDVEGDKKIYNAEVALAEWDKLRQRLLDARNKITSAESAVASNSARNNLSARTNEQKHANDALNALLKEKENIRNQLSGINQKIAEEKRKQDELKATKDAINFTTEFLKSVSEKYGAKAEQLAREMAGQAKGKKIRNVEEALKTYEKYRADINKKINAKDRAAIAAALESVKLSDISSNLNRFSRGLGYAGKFTSLADWITEFGKAVARGTENWRPLFVKTETIIAGNAATALVALALVFSILTGSALGIIGYGLLMAVTGALIDESLVEKANKFWGISYAISWVARGQAAGQGLEWMGAAWDDSLH			Cell swelling occurred in certain cells
NH2-colicinIa-I626-DEADYYCNSRDS-COOH (protein, E217 - S228 from HBV HBsAg ScFV linked to Colicin Ia, light chain CDR3 of HBV HBsAg ScFv linked to colicin Ia at residue 626) SDPVARGITNPGAESLGYDSDGHEIMAVASPIYVASNPPRVASPVFHGTPPAWSSFGNKTIWGGNEWVASPDSPTRSDIEKRDKEITAYKNTLSAQQKENENKRTEAGKRLSAAIAAREKDENTLKTLRAGNADAADITRQEFRLLQAELREYGFRTEIAGYDALRLHTESRMLFADADSLRISPREARSLIEQAEKRQKDAQNADKKAADMLAEYERRKGILDTRLSELEKNGGAALAVLDAQQARLLGQQTRNDRAISEARNKLSSVTESLNTARNALTRAEQQLTQQKNTPDGKTIVSPEKFPGRSSTNHSIVVSGDPRFAGTIKITTSAVIDNRANLNYLLSHSGLDYKRNILNDRNPVVTEDVEGDKKIYNAEVALAEWDKLRQRLLDARNKITSAESAVASNSARNNLSARTNEQKHANDALNALLKEKENIRNQLSGINQKIAEEKRKQDELKATKDAINFTTEFLKSVSEKYGAKAEQLAREMAGQAKGKKIRNVEEALKTYEKYRADINKKINAKDRAAIAAALESVKLSDISSNLNRFSRGLGYAGKFTSLADWITEFGKAVARGTENWRPLFVKTETIIAGNAATALVALALVFSILTGSALGIIGYGLLMAVTGALIDESLVEKANKFWGIDEADYYCNSRDS			A portion of the treated cells died in comparison with the control and the rest became swollen and/or deformed
